Measured values taken from PubChem BioAssay (NCI).
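Five compound concentrations were applied to cells in 96-well plates for 48 hours; endpoints were derived by simple linear interpolation of the resulting dose-response curve. GI50: concentration for 50% inhibition of growth. TGI: concentration producing complete growth inhibition.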

How the values were obtained:
Experiment in all cases: growth of human tumour cells (NCI), 48 h
786-0 renal = system: 786-0 renal
A498 renal = system: A498 renal
A549 NSCLC = system: A549 NSCLC
ACHN renal = system: ACHN renal
BT-549 breast = system: BT-549 breast
CAKI-1 renal = system: CAKI-1 renal
CCRF-CEM leukemia = system: CCRF-CEM leukemia
COLO 205 colon = system: COLO 205 colon
DU-145 prostate = system: DU-145 prostate
EKVX NSCLC = system: EKVX NSCLC
HCC-2998 colon = system: HCC-2998 colon
HCT-116 colon = system: HCT-116 colon
HCT-15 colon = system: HCT-15 colon
HL-60(TB) leukemia = system: HL-60(TB) leukemia
HOP-62 NSCLC = system: HOP-62 NSCLC
HOP-92 NSCLC = system: HOP-92 NSCLC
HS 578T breast = system: HS 578T breast
HT29 colon = system: HT29 colon
IGROV1 ovarian = system: IGROV1 ovarian
K-562 leukemia = system: K-562 leukemia
KM12 colon = system: KM12 colon
LOX IMVI melanoma = system: LOX IMVI melanoma
M14 melanoma = system: M14 melanoma
MALME-3M melanoma = system: MALME-3M melanoma
MCF7 breast = system: MCF7 breast
MDA-MB-231 breast = system: MDA-MB-231 breast
MDA-MB-435 = system: MDA-MB-435
NCI-H226 lung = system: NCI-H226 lung
NCI-H23 lung = system: NCI-H23 lung
NCI-H460 lung = system: NCI-H460 lung
NCI-H522 lung = system: NCI-H522 lung
NCI/ADR-RES ovarian = system: NCI/ADR-RES ovarian
OVCAR-3 ovarian = system: OVCAR-3 ovarian
OVCAR-4 ovarian = system: OVCAR-4 ovarian
OVCAR-5 ovarian = system: OVCAR-5 ovarian
OVCAR-8 ovarian = system: OVCAR-8 ovarian
PC-3 prostate = system: PC-3 prostate
RPMI-8226 leukemia = system: RPMI-8226 leukemia
RXF 393 renal = system: RXF 393 renal
SF-268 CNS = system: SF-268 CNS
SF-295 CNS = system: SF-295 CNS
SF-539 CNS = system: SF-539 CNS
SK-MEL-2 melanoma = system: SK-MEL-2 melanoma
SK-MEL-28 melanoma = system: SK-MEL-28 melanoma
SK-MEL-5 melanoma = system: SK-MEL-5 melanoma
SK-OV-3 ovarian = system: SK-OV-3 ovarian
SN12C renal = system: SN12C renal
SNB-19 CNS = system: SNB-19 CNS
SNB-75 CNS = system: SNB-75 CNS
SR leukemia = system: SR leukemia
SW-620 colon = system: SW-620 colon
T-47D breast = system: T-47D breast
TK-10 renal = system: TK-10 renal
U251 CNS = system: U251 CNS
UACC-257 melanoma = system: UACC-257 melanoma
UACC-62 melanoma = system: UACC-62 melanoma
UO-31 renal = system: UO-31 renal

## CCCCCCCCCCCCCCCCNC(=O)OC(C)C
786-0 renal
  GI50: 9.38 µM
  TGI: 29.4 µM
A498 renal
  GI50: 370 nM
  TGI: 5.95 µM
A549 NSCLC
  GI50: 1950 nM
  TGI: 3.82 µM
ACHN renal
  GI50: 2160 nM
  TGI: 5.24 µM
BT-549 breast
  GI50: 21.9 µM
  TGI: 55.9 µM
CAKI-1 renal
  GI50: 2030 nM
  TGI: 4.75 µM
CCRF-CEM leukemia
  GI50: 2310 nM
  TGI: 6.2 µM
COLO 205 colon
  GI50: 1950 nM
  TGI: 3.61 µM
DU-145 prostate
  GI50: 1810 nM
  TGI: 3.41 µM
EKVX NSCLC
  GI50: 2350 nM
  TGI: 6.44 µM
HCC-2998 colon
  GI50: 2560 nM
  TGI: 6.22 µM
HCT-116 colon
  GI50: 1960 nM
  TGI: 4.17 µM
HCT-15 colon
  GI50: 2350 nM
  TGI: 6.79 µM
HL-60(TB) leukemia
  GI50: 2010 nM
  TGI: 5.56 µM
HOP-62 NSCLC
  GI50: 5.11 µM
  TGI: 11.2 µM
HOP-92 NSCLC
  GI50: 3.02 µM
  TGI: 13.7 µM
HS 578T breast
  GI50: 2190 nM
  TGI: 16.5 µM
HT29 colon
  GI50: 1650 nM
  TGI: 3.12 µM
IGROV1 ovarian
  GI50: 2270 nM
  TGI: 5 µM
K-562 leukemia
  GI50: 2140 nM
  TGI: 5.86 µM
KM12 colon
  GI50: 1830 nM
  TGI: 3.5 µM
LOX IMVI melanoma
  GI50: 1610 nM
  TGI: 2970 nM
M14 melanoma
  GI50: 3.5 µM
  TGI: 14.4 µM
MALME-3M melanoma
  GI50: 2890 nM
  TGI: 9.24 µM
MCF7 breast
  GI50: 1880 nM
  TGI: 3.53 µM
MDA-MB-231 breast
  GI50: 2370 nM
  TGI: 5.41 µM
MDA-MB-435
  GI50: 2550 nM
  TGI: 6.93 µM
NCI-H226 lung
  GI50: 3.56 µM
  TGI: 14.1 µM
NCI-H23 lung
  GI50: 3.04 µM
  TGI: 10.3 µM
NCI-H460 lung
  GI50: 1110 nM
  TGI: 2460 nM
NCI-H522 lung
  GI50: 2010 nM
  TGI: 4.62 µM
NCI/ADR-RES ovarian
  GI50: 3.34 µM
  TGI: 13.6 µM
OVCAR-3 ovarian
  GI50: 1990 nM
  TGI: 3.89 µM
OVCAR-4 ovarian
  GI50: 2010 nM
  TGI: 4.37 µM
OVCAR-5 ovarian
  GI50: 2810 nM
  TGI: 8.39 µM
OVCAR-8 ovarian
  GI50: 3.82 µM
  TGI: 18 µM
PC-3 prostate
  GI50: 2450 nM
  TGI: 7.53 µM
RPMI-8226 leukemia
  GI50: 5.22 µM
  TGI: 40.8 µM
RXF 393 renal
  GI50: 8.07 µM
  TGI: 26.6 µM
SF-268 CNS
  GI50: 2730 nM
  TGI: 8 µM
SF-295 CNS
  GI50: 2110 nM
  TGI: 5.81 µM
SF-539 CNS
  GI50: 5.15 µM
  TGI: 12.7 µM
SK-MEL-2 melanoma
  GI50: 2430 nM
  TGI: 6.15 µM
SK-MEL-28 melanoma
  GI50: 13.5 µM
  TGI: 27.1 µM
SK-MEL-5 melanoma
  GI50: 12.3 µM
  TGI: 27.8 µM
SK-OV-3 ovarian
  GI50: 5.7 µM
  TGI: 14.3 µM
SN12C renal
  GI50: 4.53 µM
  TGI: 17 µM
SNB-19 CNS
  GI50: 5.48 µM
  TGI: 16.3 µM
SNB-75 CNS
  GI50: 5.74 µM
  TGI: 18.1 µM
SR leukemia
  GI50: 1560 nM
  TGI: 5.01 µM
SW-620 colon
  GI50: 1460 nM
  TGI: 2870 nM
T-47D breast
  GI50: 3.79 µM
  TGI: 12.6 µM
TK-10 renal
  GI50: 2090 nM
  TGI: 4.48 µM
U251 CNS
  GI50: 1960 nM
  TGI: 3.67 µM
UACC-257 melanoma
  GI50: 13.2 µM
  TGI: 28.8 µM
UACC-62 melanoma
  GI50: 6.04 µM
  TGI: 19 µM
UO-31 renal
  GI50: 1540 nM
  TGI: 3.38 µM
